Measurements taken from patent US11860166B2 (KOREA INSTITUTE OF SCIENCE AND TECHNOLOGY, priority 2019, dated 2024).

Tested on: dopamine receptor D1
Conditions: co-imaging, quinpirole first, then SKF38393, FIG. 5A
Method: To minimize a photobleaching phenomenon, the live fluorescence microscope was set. When stimulated with light at a wavelength of 560 nm in the live fluorescence microscope, intensity at a cpRFP fluorescence wavelength of 610 nm was measured.
To induce fluorescence intensity suitable for experiments, 50 msec exposure and ND16 intensity were maintained. The fluorescence cycle was performed for total 10 minutes by measuring cpRFP images for 1 minute using the fluorescence microscope.
The saved images were analyzed using an NIS program (Nikon). cpRFP fluorescence intensity of the entire single cells in the regions of interest (ROI) was analyzed in the NIS program.

SMILES: Oc1cc2c(cc1O)C(c1ccccc1)CNCC2 (stereo not shown) [SKF38393]
- fluorescence of red biosensor DRD1 Red 1.3 on ligand treatment: increase in fluorescence by selective response
